Patent US20230250096A1, “SUBSTITUTED PHENYL-1H-PYRROLO[2,3-c] PYRIDINE DERIVATIVES” (Janssen Pharmaceutica NV, priority 2021, published 2023)
Where two headings read alike, the source gives them in different places.

How the values were obtained:
Format in all cases: cell-based, human
[1] = system: MOLM14 cells; assay: Proliferation assay (spheroid confluence, 8 days), MOLM14; details: read-out: spheroid assay_MOLM14 IC50
Summary of the method: (§1)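 Cells grown as spheroids in ultra-low attachment round-bottom wells (200 MOLM14 or OCI-AML3, 300 KO-52 per well) with compound dilutions at 0.3% DMSO, 8 days, 37° C. Confluence from live-cell imaging at day 8; % effect normalized to DMSO and high-dose reference/staurosporin, absolute IC50 from variable-slope fit.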

[2] = system: MEIS1 mRNA expression; assay: MEIS1 mRNA expression assay (Quantigene Singleplex) in MOLM14 cells; details: 48 hours incubation
Summary of the method: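 MOLM14 cells, 3,750/well, exposed to increasing compound concentrations for 48 h. MEIS1 mRNA measured by QuantiGene Singleplex branched-DNA hybridization (lysis 45 min, hybridization 18–22 h, both 55 °C), normalized to RPL28. IC50 fitted to background-corrected fold change versus DMSO.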

[3] = system: KO-52 cells; assay: Proliferation assay (spheroid confluence, 8 days), KO-52 control cell line; details: read-out: spheroid assay_KO-52 IC50
Summary of the method: as §1

Structure (SMILES)	IC50 ([1]; Homo sapiens, MOLM-14, MOLM14) [µM]	IC50 ([2]; Homo sapiens, MOLM-14, 48 h) [µM]	IC50 ([3]; Homo sapiens) [µM]	IC50 ([1]; MOLM14) [µM]	IC50 [2] [µM]	IC50 [3] [µM]
CC(=O)N1CCN([C@H]2C[C@@H]([C@@H](C(C)C)N3CC(Cc4cn(-c5ccc(F)cc5C(=O)N(C)C(C)C)c5cncc(C)c45)C3)C2)CC1 (single isomer, unassigned) [Compound 32a]	0.005	0.022	5.5	–	–	–
CC(=O)N1CCC(CN2CCC(Cc3cn(-c4ccc(F)cc4C(=O)N(C)C(C)C)c4cncc(C)c34)CC2)CC1 [Compound 58]	0.176	0.183	10.4	–	–	–
Cc1cncc2c1c(CC1CCN(CC3CCN(C(=O)CC#N)CC3)C1)cn2-c1ccc(F)cc1C(=O)N(C)C(C)C (single isomer, unassigned) [Compound 60]	0.013	0.007	2.7	–	–	–
Cc1cncc2c1c(C[C@@H]1CCN(CC3CCOCC3)C1)cn2-c1ccc(F)cc1C(=O)N(C[C@H](C)O)C(C)C (single isomer, unassigned) [Compound 365b]	0.008	0.011	–	–	–	–
CC(C)C([C@H]1C[C@@H](N(C)C)C1)N1CC(Cc2cn(-c3ccc(F)cc3C(=O)N(C)C(C)C)c3cncc(Cl)c23)C1 (some centres unmarked) [Compound 41]	0.014	0.015	1.4	–	–	–
COCCN(C)CCCC(C(C)C)N1CC[C@@H](Cc2cn(-c3ccc(F)cc3C(=O)N(C)C(C)C)c3cncc(C)c23)C1 (some centres unmarked) [Compound 1]	0.002	0.004	7.5	–	–	–
Cc1cncc2c1c(C[C@@H]1CCN(CC3CCOCC3)C1)cn2-c1ccc(F)cc1C(=O)N(C)C(C)C (single isomer, unassigned) [Compound 42]	0.031	0.045	2.8	–	–	–
CC(=O)N1C[C@@H]2CN([C@H]3C[C@@H]([C@@H](C(C)C)N4CC(Cc5cn(-c6ccc(F)cc6C(=O)N(C)C(C)C)c6cncc(Cl)c56)C4)C3)C[C@H]2C1 (single isomer, unassigned) [Compound 39a]	0.002	0.005	> 15	–	–	–
Cc1cncc2c1c(C[C@H]1CCN(CC(C)C)C1)cn2-c1ccc(F)cc1C(=O)N(C)C(C)C (single isomer, unassigned) [Compound 45]	0.053	0.056	6.2	–	–	–
CC(=O)N1CCC(CN2CC[C@@H](Cc3cn(-c4ccc(F)cc4C(=O)N(C)C(C)C)c4cncc(C)c34)C2)CC1 (single isomer, unassigned) [Compound 50]	0.039	0.089	2.3	–	–	–
Cc1cncc2c1c(C[C@H]1CCN(C(C)C3CCOCC3)C1)cn2-c1ccc(F)cc1C(=O)N(C)C(C)C (mixture of isomers) [Compound 49]	0.003	0.017	3	–	–	–
CNC(=O)[C@H]1CC[C@H](CN2CCC(Cc3cn(-c4ccc(F)cc4C(=O)N(C)C(C)C)c4cncc(C)c34)C2)CC1 (single isomer, unassigned) [Compound 71]	–	–	–	0.083	0.048	> 15
Cc1cncc2c1c(C[C@@H]1CCN(CC(C)C)C1)cn2-c1ccc(F)cc1C(=O)N(C)C(C)C (single isomer, unassigned) [Compound 44]	0.071	0.043	4.7	–	–	–
Cc1cncc2c1c(C[C@H]1CCN(C[C@H]3CC[C@H](NS(C)(=O)=O)CC3)C1)cn2-c1ccc(F)cc1C(=O)N(C)C(C)C (single isomer, unassigned) [Compound 69]	0.005	0.017	11	–	–	–
Cc1cncc2c1c(CC1CN(CC3CCN(C(=O)CC#N)CC3)C1)cn2-c1ccc(F)cc1C(=O)N(C)C(C)C [Compound 67]	0.048	~0.068	12	–	–	–
CNC(=O)[C@H]1CC[C@H](CN2CCC(Cc3cn(-c4ccc(F)cc4C(=O)N(C)C(C)C)c4cncc(C)c34)C2)CC1 (single isomer, unassigned) [Compound 70]	–	0.048	8.5	0.04	–	–
CCN(C(=O)c1cc(F)ccc1-n1cc(CC2CN(C(C(C)C)[C@H]3C[C@@H](N4CCN(S(C)(=O)=O)CC4)C3)C2)c2c(C)cncc21)C(C)C (some centres unmarked) [Compound 37a]	0.008	0.027	0.8	–	–	–
Cc1cncc2c1c(C[C@H]1CCN(CC3CCOCC3)C1)cn2-c1ccc(F)cc1C(=O)N(C)C(C)C (single isomer, unassigned) [Compound 43]	0.014	0.024	3.3	–	–	–
CC(=O)N1CCC(CN2CC(Cc3cn(-c4ccc(F)cc4C(=O)N(C)C(C)C)c4cncc(C)c34)C2)CC1 [Compound 63]	0.053	0.083	5.9	–	–	–
COCC(=O)N1CCC(CN2CC(Cc3cn(-c4ccc(F)cc4C(=O)N(C)C(C)C)c4cncc(C)c34)C2)CC1 [Compound 66]	0.018	0.046	7.7	–	–	–
Cc1cncc2c1c(CC1CN(CC3CCOCC3)C1)cn2-c1ccc(F)cc1C(=O)N(C)C(C)C [Compound 61]	0.01	0.023	7.9	–	–	–
COCC(=O)N1CCC(CN2CCC(Cc3cn(-c4ccc(F)cc4C(=O)N(C)C(C)C)c4cncc(C)c34)C2)CC1 (single isomer, unassigned) [Compound 59]	0.011	0.009	2.1	–	–	–
Cc1cncc2c1c(CC1CN([C@@H](C(C)C)[C@H]3C[C@@H](N4CCC(S(C)(=O)=O)CC4)C3)C1)cn2-c1ccc(F)cc1C(=O)N(C)C(C)C [Compound 33a]	0.01	0.011	3	–	–	–
CCN(C(=O)c1cc(F)ccc1-n1cc(CC2CN(C(C(C)C)[C@H]3C[C@@H](N4C[C@H]5CN(C(C)=O)C[C@@H]5C4)C3)C2)c2c(C)cncc21)C(C)C (mixture of isomers) [Compound 38a]	< 0.0018	0.006	0.8	–	–	–
Cc1cncc2c1c(C[C@@H]1CCN(CC3CCOCC3)C1)cn2-c1ccc(F)cc1C(=O)N(CCO)C(C)C [Compound 357]	0.008	0.015	3	–	–	–
Cc1cncc2c1c(C[C@H]1CCN([C@@H](C)C3CCOCC3)C1)cn2-c1ccc(F)cc1C(=O)N(C)C(C)C (single isomer, unassigned) [Compound 49b]	0.003	0.009	4.1	–	–	–
